Test results published in patent US5322854A, “Reveromycin A, method for preparing the same, and antitumor agent and antifungal agent comprising the same” (Rikagaku Kenkyusho, priority 1990, dated 1994).

Assays:
TGF-α = settings: background art; cited from earlier work
[1] = background art; cited from earlier work
mouse epithelial cells = test: Cell toxicity in mouse epithelial cells; type: cell-based; settings: 50 μg/ml
src^ts -NRK cells = test: Cell toxicity in src^ts-NRK cells; type: cell-based, Rat; settings: 50 μg/ml, 32° C.
Acute toxicity = settings: mouse, in vivo, iv

Row | SMILES | potency (TGF-α) | effect in blood [1] | cell toxicity (mouse epithelial cells) | cell toxicity (src^ts -NRK cells) | Solubility (Solubility; aqueous acidic solution) | Solubility (Solubility; dimethylsulfoxide, ethyl acetate, and methanol) | LD50 (Acute toxicity) [mg/kg]
1 | O=CN/C=C/c1cc(O)ccc1O [Erbstatin] | not sufficiently potent | lose their effects in blood |  |  |  |  | 
2 | CCCC[C@@]1(OC(=O)CCC(=O)O)CC[C@]2(CC[C@H](C)[C@@H](C/C=C(C)/C=C/[C@H](O)[C@@H](C)/C=C/C(=O)O)O2)O[C@H]1/C=C/C(C)=C/C(=O)O [Reveromycin A] |  |  | observed | observed | insoluble | easily soluble | ≥ 100
